Assay: Plasma sCT pharmacokinetics after a single dose, phase I crossover study
Type: in vivo, healthy postmenopausal women
Procedure: The study was a randomized, partially-blind, placebo-controlled, single dose, exploratory crossover study to assess the PK and PD of 0.8 mg SMC021 in healthy postmenopausal women when taken in the morning with different volumes of water (50 or 200 ml) and at different times before a meal (10, 30, or 60 minutes). Subjects were blinded to treatment with SMC021 and placebo, but were not blinded to water volume intake and pre-meal dosing time. The PK and PD profiles of Miacalcic® 200 IU NS were additionally assessed in an open-label manner in a small subset of subjects.
Females fulfilling the inclusion criteria of being generally healthy ambulatory female volunteers, aged between 40–70 years and having passed a natural or surgically-induced menopause at least 5 years before entering the study and being without diseases or medications known to affect bone metabolism were allowed to participate. The study was of a 5-period, 10-treatment, 56-sequence crossover design. Subjects were randomly allocated to a sequence. The study contained 10 possible treatments, comprising a combination of study medication of SMC021, placebo, and Miacalcic® NS), water volume given with the tablet (50/200 ml water, and dosing time to meal (10, 30 or 60 minutes pre-meal) as outlined in Table 1. To reduce the burden of treatment to the subjects, an incomplete cross-over design was used. […]
The concentration of plasma sCT was measured by as chemiluminescence-based assay that previously have been described. Values measured below the lower limit of quantification of 2.5 pg/ml was assigned the value of 2.5 pg/ml. […] The lower limit of quantification (LLOQ) was 2.5 pg/mL. The quality control (QC) samples, ranging from 2.5 pg/mL to 700 pg/mL, were prepared daily and measured in 3 to 5 replicates. The overall accuracy and precision (CV) of QC samples, measured on 11 different days was 101.3% and 10.1% for 2.5 pg/mL concentration and 94.3% and 6.0% for 700 pg/mL concentration, respectively. […]

time to maximum plasma sCT concentration after drug intake (minimal if any effect of water and meal time): approximately 15 minutes | fold sCT AUC0–4 with 50 ml of water versus nasal calcitonin (oral 0.8 mg with 50 ml water vs 200 IU nasal spray): 4 fold | fold higher absorption of sCT with 50 ml as compared with 200 ml of water (oral 0.8 mg, Cmax and AUC0–4, irrespective of meal timing (10, 30, 60 min)): two-fold increase
Substance: salmon calcitonin [sCT]
